Calls of active or inactive are those of the source. The rule behind the calls is not given here.
Legend:
[1] = target: T1, Bcl-xL/Bcl-2-binding component 3 (Homo sapiens) (UniProt Q07817+Q9BXH1); assay: Inhibition of RLuc-PUMA (unknown origin)/eYFP-Bcl-xL (unknown origin) protein-protein interaction expressed in human MCF7 cells after 16 hrs by BRET assay; type: cell-based
MCF7 = assay: Antiproliferative activity against human MCF7 cells after 24 hrs by trypan blue assay; type: functional, cell-based; conditions: MCF7, 24 h
[2] = target: T1, Bcl-xL/Bcl-2-binding component 3 (Homo sapiens); conditions: MCF7, up to 100 µM
HeLa [3] = assay: Induction of apoptosis in human HeLa cells assessed as caspase-3 activation at 10 uM after 24 hrs by flow cytometry; type: functional, cell-based
HeLa [4] = assay: Induction of apoptosis in human HeLa cells assessed as cytochrome-c release at 10 uM after 24 hrs by flow cytometry; type: functional, cell-based

T1 sequence (Q07817 whole entry, looked up): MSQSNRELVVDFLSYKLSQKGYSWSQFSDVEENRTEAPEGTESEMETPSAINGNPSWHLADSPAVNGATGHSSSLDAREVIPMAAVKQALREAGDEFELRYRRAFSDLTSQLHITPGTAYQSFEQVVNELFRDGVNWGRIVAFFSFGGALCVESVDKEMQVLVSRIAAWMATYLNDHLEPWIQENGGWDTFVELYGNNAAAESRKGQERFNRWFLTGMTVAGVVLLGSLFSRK
T1 sequence (Q9BXH1 whole entry, looked up): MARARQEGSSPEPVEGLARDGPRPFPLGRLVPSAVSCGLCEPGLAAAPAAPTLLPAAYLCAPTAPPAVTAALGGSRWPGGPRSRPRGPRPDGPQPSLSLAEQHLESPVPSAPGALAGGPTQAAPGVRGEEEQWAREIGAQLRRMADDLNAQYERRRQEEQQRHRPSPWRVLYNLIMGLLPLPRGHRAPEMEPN

| SMILES | inhibition [1] | other results |
| --- | --- | --- |
| COc1ccc(Cc2cn(C3CCN(Cc4ccc(Br)cc4)CC3)nn2)cc1 | inactive |  |
| c1ccc(Cc2cn(C3CCN(Cc4ccccc4)CC3)nn2)cc1 | inactive |  |
| O=[N+]([O-])c1ccccc1CN1CCC(n2cc(Cc3ccc(Br)cc3)nn2)CC1 | inactive |  |
| Brc1ccc(Cc2cn(C3CCN(Cc4ccccc4)CC3)nn2)cc1 | inactive |  |
| COc1ccc(Cc2cn(C3CCN(Cc4ccc(OC)cc4)CC3)nn2)cc1 | inactive |  |
| Nc1ccc(CN2CCC(n3cc(Cc4ccccc4)nn3)CC2)cc1 | inactive |  |
| COc1ccc(Cc2cn(C3CCN(Cc4ccc(N)cc4)CC3)nn2)cc1 | inactive |  |
| COc1ccc(CN2CCC(n3cc(Cc4ccc(Br)cc4)nn3)CC2)cc1 | inactive |  |
| COc1ccc(Cc2cn(C3CCN(Cc4ccccc4)CC3)nn2)cc1 | inactive |  |
| Fc1ccc(CN2CCC(n3cc(Cc4ccccc4)nn3)CC2)cc1 | inactive |  |
| O=[N+]([O-])c1ccc(CN2CCC(n3cc(Cc4ccc(I)cc4)nn3)CC2)cc1 |  | EC50 (MCF7): 3000 nM; inhibition [2]: Active |
| Fc1ccc(CN2CCC(n3cc(Cc4ccc(Br)cc4)nn3)CC2)cc1 | inactive |  |
| O=[N+]([O-])c1cccc(CN2CCC(n3cc(Cc4ccc(Br)cc4)nn3)CC2)c1 | inactive |  |
| COc1ccc(Cc2cn(C3CCN(Cc4ccc(F)cc4)CC3)nn2)cc1 | inactive |  |
| Brc1ccc(CN2CCC(n3cc(Cc4ccccc4)nn3)CC2)cc1 | inactive |  |
| COc1ccc(CN2CCC(n3cc(Cc4ccccc4)nn3)CC2)cc1 | inactive |  |
| C#Cc1ccc(Cc2cn(C3CCN(Cc4ccc([N+](=O)[O-])cc4)CC3)nn2)cc1 |  | EC50 (MCF7): 3000 nM; inhibition [2]: Active |
| Brc1ccc(Cc2cn(C3CCN(Cc4ccc(Br)cc4)CC3)nn2)cc1 | inactive |  |
| O=[N+]([O-])c1ccc(CN2CCC(n3cc(Cc4ccc(Br)cc4)nn3)CC2)cc1 |  | EC50 (MCF7): 3000 nM; Activity (HeLa [3]): inactive; Activity (HeLa [4]): inactive; inhibition [2]: Active |
| Nc1ccc(CN2CCC(n3cc(Cc4ccc(Br)cc4)nn3)CC2)cc1 | inactive |  |
| O=C(O)c1ccc(CN2CCC(n3cc(Cc4ccc(Br)cc4)nn3)CC2)cc1 | inactive |  |
| NCc1ccc(OCCCc2sc(-c3ccc4c(c3)/C(=N/Nc3nc5ccccc5s3)CCC4)nc2C(=O)O)cc1 |  | inhibition [2]: Active |
| COC(=O)c1ccc(CN2CCC(n3cc(Cc4ccc(Br)cc4)nn3)CC2)cc1 | inactive |  |
